Results published in ChEMBL document CHEMBL5715954, “Silencing c-Myc translation as a therapeutic strategy through targeting PI3Kδ and CK1ε in hematological malignancies” (Blood, 2017).

Assays:
Parameters in all cases: scale not given: the % may be the effect or the level left
[1] = molecular target: Vascular endothelial growth factor receptor 3 (Homo sapiens) (UniProt P35916); experiment: Inhibition of human FLT4 assessed as enzyme activity at 1 uM using poly[Glu:Tyr] (4:1) as substrate preincubated for 20 mins followed by [gamma-33P]-ATP addition and measured after 120 mins by radiometric Hot-SpotSM Kinase assay relative to control
[2] = molecular target: Myosin-IIIa (Homo sapiens) (UniProt Q8NEV4); experiment: Inhibition of human MYO3A assessed as enzyme activity at 1 uM using myelin basic protein as substrate preincubated for 20 mins followed by [gamma-33P]-ATP addition and measured after 120 mins by radiometric Hot-SpotSM Kinase assay relative to control
[3] = molecular target: T1, Serine/threonine-protein kinase Nek9 (Homo sapiens) (UniProt Q8TD19); experiment: Inhibition of human NEK9 assessed as enzyme activity at 1 uM using myelin basic protein as substrate preincubated for 20 mins followed by [gamma-33P]-ATP addition and measured after 120 mins by radiometric Hot-SpotSM Kinase assay relative to control
T1 sequence (whole entry): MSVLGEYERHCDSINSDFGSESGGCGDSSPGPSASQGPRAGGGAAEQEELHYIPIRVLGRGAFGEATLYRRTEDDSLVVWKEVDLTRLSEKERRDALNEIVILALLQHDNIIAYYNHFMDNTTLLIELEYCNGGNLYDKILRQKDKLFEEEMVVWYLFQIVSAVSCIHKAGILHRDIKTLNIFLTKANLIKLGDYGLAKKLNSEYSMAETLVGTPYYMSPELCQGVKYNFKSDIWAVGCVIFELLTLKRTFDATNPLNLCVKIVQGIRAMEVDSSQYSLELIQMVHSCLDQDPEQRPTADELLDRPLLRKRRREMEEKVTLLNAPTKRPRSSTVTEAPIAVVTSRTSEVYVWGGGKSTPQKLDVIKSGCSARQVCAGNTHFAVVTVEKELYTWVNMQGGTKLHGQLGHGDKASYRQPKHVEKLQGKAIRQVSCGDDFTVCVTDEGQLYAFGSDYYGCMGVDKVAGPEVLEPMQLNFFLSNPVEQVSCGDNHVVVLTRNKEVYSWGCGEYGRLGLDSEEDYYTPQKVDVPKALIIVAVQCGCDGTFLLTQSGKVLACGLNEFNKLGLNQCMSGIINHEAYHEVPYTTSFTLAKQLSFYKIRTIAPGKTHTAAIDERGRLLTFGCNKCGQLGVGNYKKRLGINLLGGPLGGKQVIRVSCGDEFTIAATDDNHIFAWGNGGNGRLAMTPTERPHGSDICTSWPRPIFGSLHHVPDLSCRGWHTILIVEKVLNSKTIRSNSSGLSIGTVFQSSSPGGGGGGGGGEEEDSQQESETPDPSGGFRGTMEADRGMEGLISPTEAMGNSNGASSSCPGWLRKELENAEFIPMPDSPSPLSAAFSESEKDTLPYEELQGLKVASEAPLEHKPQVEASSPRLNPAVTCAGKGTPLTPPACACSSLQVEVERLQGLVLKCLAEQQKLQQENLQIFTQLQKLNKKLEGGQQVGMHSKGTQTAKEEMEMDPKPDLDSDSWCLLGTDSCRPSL

[4] = molecular target: Serine/threonine-protein kinase 16 (Homo sapiens) (UniProt O75716); experiment: Inhibition of human STK16 assessed as enzyme activity at 1 uM using myelin basic protein as substrate preincubated for 20 mins followed by [gamma-33P]-ATP addition and measured after 120 mins by radiometric Hot-SpotSM Kinase assay relative to control
[5] = molecular target: T2, Mitogen-activated protein kinase kinase kinase 7 (Homo sapiens) (UniProt O43318); experiment: Inhibition of human TAK1 assessed as enzyme activity at 1 uM using casein as substrate preincubated for 20 mins followed by [gamma-33P]-ATP addition and measured after 120 mins by radiometric Hot-SpotSM Kinase assay relative to control
T2 sequence (whole entry): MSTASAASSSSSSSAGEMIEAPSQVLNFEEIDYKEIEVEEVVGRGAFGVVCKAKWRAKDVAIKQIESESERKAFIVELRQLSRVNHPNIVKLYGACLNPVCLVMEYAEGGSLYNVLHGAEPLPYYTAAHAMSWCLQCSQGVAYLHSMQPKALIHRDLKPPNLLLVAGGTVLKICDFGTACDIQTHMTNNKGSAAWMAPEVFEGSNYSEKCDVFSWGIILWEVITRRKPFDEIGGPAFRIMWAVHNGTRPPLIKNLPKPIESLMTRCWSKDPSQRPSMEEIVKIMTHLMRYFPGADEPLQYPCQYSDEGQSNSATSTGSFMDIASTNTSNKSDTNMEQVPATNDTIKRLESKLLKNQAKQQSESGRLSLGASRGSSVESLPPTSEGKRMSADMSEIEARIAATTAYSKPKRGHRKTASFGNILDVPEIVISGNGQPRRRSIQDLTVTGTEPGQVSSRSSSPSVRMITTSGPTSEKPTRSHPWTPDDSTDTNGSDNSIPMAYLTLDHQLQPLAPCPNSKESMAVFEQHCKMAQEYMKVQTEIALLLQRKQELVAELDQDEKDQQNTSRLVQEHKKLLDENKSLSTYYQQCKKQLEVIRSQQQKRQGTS

[6] = molecular target: T3, Serine/threonine-protein kinase tousled-like 1 (Homo sapiens) (UniProt Q9UKI8); experiment: Inhibition of human TLK1 assessed as enzyme activity at 1 uM using histone H3 as substrate preincubated for 20 mins followed by [gamma-33P]-ATP addition and measured after 120 mins by radiometric Hot-SpotSM Kinase assay relative to control
T3 sequence (whole entry): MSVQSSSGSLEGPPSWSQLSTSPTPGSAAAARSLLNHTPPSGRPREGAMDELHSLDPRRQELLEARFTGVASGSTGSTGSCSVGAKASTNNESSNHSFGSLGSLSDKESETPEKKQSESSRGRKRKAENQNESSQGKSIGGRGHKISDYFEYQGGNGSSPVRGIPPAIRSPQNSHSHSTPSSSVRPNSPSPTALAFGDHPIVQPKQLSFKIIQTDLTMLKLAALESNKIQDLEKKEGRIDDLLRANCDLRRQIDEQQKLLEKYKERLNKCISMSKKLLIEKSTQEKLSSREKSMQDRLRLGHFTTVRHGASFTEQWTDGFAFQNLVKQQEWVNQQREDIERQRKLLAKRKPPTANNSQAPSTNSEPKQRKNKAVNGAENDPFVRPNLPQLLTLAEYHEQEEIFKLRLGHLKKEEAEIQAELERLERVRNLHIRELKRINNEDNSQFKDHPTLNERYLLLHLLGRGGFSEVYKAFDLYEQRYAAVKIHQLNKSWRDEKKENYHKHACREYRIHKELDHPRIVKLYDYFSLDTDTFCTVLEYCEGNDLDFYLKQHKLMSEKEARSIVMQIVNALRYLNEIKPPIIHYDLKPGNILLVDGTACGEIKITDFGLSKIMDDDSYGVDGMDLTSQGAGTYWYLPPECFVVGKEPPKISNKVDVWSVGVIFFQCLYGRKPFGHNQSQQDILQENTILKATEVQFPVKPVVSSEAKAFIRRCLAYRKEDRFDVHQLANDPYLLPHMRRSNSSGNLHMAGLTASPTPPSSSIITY

Chain of Vascular endothelial growth factor receptor 3 (Homo sapiens) (P35916 whole entry): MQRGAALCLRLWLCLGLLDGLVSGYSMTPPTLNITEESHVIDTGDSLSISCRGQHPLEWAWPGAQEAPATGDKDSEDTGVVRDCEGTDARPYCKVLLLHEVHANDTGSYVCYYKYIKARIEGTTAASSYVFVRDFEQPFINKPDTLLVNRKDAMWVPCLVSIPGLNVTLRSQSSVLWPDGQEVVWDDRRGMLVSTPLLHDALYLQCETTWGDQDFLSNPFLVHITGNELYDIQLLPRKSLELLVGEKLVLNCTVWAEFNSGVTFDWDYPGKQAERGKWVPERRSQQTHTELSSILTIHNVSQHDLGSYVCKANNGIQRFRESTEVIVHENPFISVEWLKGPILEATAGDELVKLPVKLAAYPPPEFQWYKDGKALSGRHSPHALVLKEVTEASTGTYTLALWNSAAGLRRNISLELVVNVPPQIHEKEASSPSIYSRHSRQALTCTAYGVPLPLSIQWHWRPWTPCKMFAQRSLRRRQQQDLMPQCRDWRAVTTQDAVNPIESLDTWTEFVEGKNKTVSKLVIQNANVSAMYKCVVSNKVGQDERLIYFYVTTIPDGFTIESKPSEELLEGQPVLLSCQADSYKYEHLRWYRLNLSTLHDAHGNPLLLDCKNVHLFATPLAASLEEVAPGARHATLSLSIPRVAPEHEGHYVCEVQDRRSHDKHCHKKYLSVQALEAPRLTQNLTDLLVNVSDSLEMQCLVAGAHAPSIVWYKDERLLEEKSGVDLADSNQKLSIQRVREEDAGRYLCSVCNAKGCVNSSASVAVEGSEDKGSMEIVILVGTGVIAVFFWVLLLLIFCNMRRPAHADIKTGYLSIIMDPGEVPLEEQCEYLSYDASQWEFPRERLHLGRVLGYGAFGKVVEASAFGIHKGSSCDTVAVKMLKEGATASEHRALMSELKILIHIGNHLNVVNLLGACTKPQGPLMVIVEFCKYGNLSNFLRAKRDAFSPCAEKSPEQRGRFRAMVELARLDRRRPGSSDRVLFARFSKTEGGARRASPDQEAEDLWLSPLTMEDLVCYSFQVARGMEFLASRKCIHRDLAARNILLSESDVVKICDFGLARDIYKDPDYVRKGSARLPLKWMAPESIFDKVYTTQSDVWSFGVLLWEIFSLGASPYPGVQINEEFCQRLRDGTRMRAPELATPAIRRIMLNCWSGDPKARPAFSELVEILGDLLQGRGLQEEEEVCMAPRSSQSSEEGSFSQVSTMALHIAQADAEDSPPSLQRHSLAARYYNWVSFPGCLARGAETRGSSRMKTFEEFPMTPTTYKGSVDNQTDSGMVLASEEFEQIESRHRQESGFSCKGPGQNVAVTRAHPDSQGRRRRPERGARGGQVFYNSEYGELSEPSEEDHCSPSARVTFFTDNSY
Chain of Serine/threonine-protein kinase 16 (Homo sapiens) (O75716 whole entry): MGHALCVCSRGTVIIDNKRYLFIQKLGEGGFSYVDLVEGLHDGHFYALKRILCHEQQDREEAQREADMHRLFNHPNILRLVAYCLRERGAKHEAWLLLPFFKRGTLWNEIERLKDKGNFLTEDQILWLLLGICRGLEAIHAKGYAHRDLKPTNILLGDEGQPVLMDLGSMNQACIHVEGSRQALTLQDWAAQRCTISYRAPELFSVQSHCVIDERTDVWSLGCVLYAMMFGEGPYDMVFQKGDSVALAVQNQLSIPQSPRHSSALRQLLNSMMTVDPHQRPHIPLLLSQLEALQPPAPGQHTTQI
Chain of Myosin-IIIa (Homo sapiens) (Q8NEV4 whole entry): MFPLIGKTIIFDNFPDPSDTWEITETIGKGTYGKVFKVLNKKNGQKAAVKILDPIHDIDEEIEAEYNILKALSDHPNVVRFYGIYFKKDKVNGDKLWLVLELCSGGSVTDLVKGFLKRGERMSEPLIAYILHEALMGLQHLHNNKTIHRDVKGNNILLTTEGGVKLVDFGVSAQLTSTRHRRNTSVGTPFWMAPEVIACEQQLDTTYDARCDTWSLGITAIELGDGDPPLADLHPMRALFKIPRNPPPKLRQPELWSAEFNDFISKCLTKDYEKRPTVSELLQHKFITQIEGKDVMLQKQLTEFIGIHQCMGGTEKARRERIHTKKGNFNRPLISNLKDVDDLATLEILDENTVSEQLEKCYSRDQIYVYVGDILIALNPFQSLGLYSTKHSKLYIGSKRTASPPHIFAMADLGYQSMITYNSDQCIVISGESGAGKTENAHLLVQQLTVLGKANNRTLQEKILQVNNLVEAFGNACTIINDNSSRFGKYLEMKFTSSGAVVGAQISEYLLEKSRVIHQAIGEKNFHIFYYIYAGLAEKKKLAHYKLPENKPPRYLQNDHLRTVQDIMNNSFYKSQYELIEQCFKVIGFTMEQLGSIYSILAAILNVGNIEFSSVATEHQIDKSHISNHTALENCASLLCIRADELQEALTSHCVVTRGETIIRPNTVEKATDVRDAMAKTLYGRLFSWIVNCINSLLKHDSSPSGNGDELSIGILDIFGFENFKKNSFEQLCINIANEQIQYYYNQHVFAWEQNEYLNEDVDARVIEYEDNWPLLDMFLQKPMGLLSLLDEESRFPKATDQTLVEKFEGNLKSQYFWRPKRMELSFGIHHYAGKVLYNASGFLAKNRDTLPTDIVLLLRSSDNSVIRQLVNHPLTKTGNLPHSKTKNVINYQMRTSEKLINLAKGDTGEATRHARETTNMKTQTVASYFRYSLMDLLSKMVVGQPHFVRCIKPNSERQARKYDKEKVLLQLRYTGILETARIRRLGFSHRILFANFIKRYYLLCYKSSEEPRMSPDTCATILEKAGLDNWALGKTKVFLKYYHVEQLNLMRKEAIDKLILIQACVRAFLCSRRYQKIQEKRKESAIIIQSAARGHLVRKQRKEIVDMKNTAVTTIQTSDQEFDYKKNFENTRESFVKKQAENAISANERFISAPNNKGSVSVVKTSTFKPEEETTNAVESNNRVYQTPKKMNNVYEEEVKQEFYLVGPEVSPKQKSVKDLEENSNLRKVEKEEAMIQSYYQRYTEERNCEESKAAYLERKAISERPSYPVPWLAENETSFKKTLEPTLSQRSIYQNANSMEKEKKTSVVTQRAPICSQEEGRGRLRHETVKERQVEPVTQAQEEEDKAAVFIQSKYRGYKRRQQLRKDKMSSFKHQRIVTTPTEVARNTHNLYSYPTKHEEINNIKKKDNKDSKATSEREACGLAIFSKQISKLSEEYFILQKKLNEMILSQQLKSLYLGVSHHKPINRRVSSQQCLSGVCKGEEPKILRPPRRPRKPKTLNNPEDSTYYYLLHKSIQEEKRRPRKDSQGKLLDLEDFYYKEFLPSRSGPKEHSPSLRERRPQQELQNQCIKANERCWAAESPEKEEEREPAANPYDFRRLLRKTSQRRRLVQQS

Row | Structure (SMILES) | Activity [1] [%] | Activity [2] [%] | Activity [3] [%] | Activity [4] [%] | Activity [5] [%] | Activity [6] [%]
1 | CC[C@H](Nc1ncnc2[nH]cnc12)c1nc2cccc(F)c2c(=O)n1-c1ccccc1 | 98.8 | 91.7 | 95.1 | 105 | 102 | 100
2 | C[C@H](Nc1ncnc2nc[nH]c12)c1cc2cccc(Cl)c2c(=O)n1-c1ccccc1 | 101 | 93.6 | 94.8 | 106 | 98.7 | 105
3 | CC(C)Oc1ccc(-c2nn([C@@H](C)c3oc4ccc(F)cc4c(=O)c3-c3cccc(F)c3)c3ncnc(N)c23)cc1F [UMBRALISIB] | 98.8 | 84.7 | 91.6 | 108 | 99 | 102
